Reference: PubChem BioAssay (NCI)
Where “and” joins values, the source holds several entries; their conditions need not be identical. Equal entries are not always repeated.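 Method: 48-hour compound exposure of cells in 96-well plates, five concentrations, linear interpolation of endpoints. GI50 is the concentration that inhibits growth by half. At the TGI there is no net growth.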

What was measured:
Assay in all cases: NCI anticancer screen, dose series, 48 h
SK-MEL-28 melanoma = test system: SK-MEL-28 melanoma
SF-539 CNS = test system: SF-539 CNS
XF 498 CNS = test system: XF 498 CNS
786-0 renal = test system: 786-0 renal
OVCAR-5 ovarian = test system: OVCAR-5 ovarian
CCRF-CEM leukemia = test system: CCRF-CEM leukemia
DMS 273 small cell lung = test system: DMS 273 small cell lung
U251 CNS = test system: U251 CNS
T-47D breast = test system: T-47D breast
SR leukemia = test system: SR leukemia

Structure (SMILES) | TGI (SK-MEL-28 melanoma) | TGI (SF-539 CNS) | TGI (XF 498 CNS) [µM] | TGI (786-0 renal) | TGI (OVCAR-5 ovarian) | TGI (CCRF-CEM leukemia) | TGI (DMS 273 small cell lung) [µM] | TGI (U251 CNS) | TGI (T-47D breast) [µM] | TGI (SR leukemia) | GI50 (U251 CNS) | GI50 (T-47D breast) | GI50 (SK-MEL-28 melanoma) | GI50 (SR leukemia) | GI50 (SF-539 CNS) | GI50 (786-0 renal) | GI50 (OVCAR-5 ovarian) | GI50 (CCRF-CEM leukemia)
O=S1c2ccccc2NC(c2ccc3ccccc3c2)CC1c1ccccc1 (stereo not drawn) | > 100 µM | 41.1 µM | 52.8 | 31.1 µM | > 100 µM | 38 µM | 91.6 |  |  |  |  |  |  |  |  |  |  | 
Cc1cn([C@H]2C[C@H](O)[C@@H](CO)O2)c(=O)nc1N | > 100 µM | > 100 µM |  | > 100 µM | > 100 µM | > 100 µM |  | > 100 µM | > 100 | > 100 µM |  |  |  |  |  |  |  | 
COc1cc(-c2nc(-c3ccc(-c4nc5ccc(F)cc5[nH]4)cc3)no2)cc(OC)c1OC | 16 µM | 18.7 µM |  | 17.9 µM | 34.5 µM | 22.3 µM |  | 28.8 µM | 7.46 | > 100 µM | 3.03 µM | 2720 nM | 3.78 µM | 2980 nM | 3380 nM | 3.61 µM | 5.59 µM | 2970 nM
CCCC(=O)c1ccc(=O)n(C)c1 | > 100 µM | > 100 µM | > 100 | > 100 µM | > 100 µM | > 100 µM | > 100 | > 100 µM |  | > 100 µM |  |  |  |  |  |  |  | 
c1ccc2cc(C[n+]3ccn(Cc4ccc5ccccc5n4)c3)ccc2c1 | 1.35 µM and 13 µM | 11.4 µM and 13.8 µM |  | 13 µM and 24.8 µM | 9.52 µM and 16.7 µM | 11 µM and 16.4 µM |  | 12.4 µM and 15.2 µM |  | 2.16 µM and 13.7 µM | 0.406 µM and 3.19 µM | 239 nM and 2320 nM | 0.325 µM and 2.78 µM | 364 nM and 2820 nM | 421 nM and 2720 nM | 2.73 µM and 10.6 µM | 0.588 µM and 3.58 µM | 728 nM and 3640 nM
O=C(Nc1ccc(Nc2ccncc2)cc1)c1ccc(Nc2ccnc3ccc([N+](=O)[O-])cc23)cc1[N+](=O)[O-] | > 46.1 µM | 11.2 µM |  | 42.4 µM | > 88.4 µM | > 50.6 µM |  | > 24.8 µM | 34.9 | 38.8 µM | 2.76 µM | 6390 nM | 5.26 µM | 16600 nM | 2980 nM | 6.03 µM | 38 µM | 18600 nM
Oc1ccc(Oc2cnc3cc(Cl)ccc3n2)cc1 | > 100 µM | > 100 µM |  | > 100 µM | > 100 µM | 79.9 µM |  | > 100 µM | > 100 | 68.4 µM | 54.7 µM | 32800 nM | 76 µM | 22000 nM | 49400 nM | 31 µM | > 100 µM | 1620 nM
COc1cnc2c(c1)C(=O)c1c-2n(CCCNCCN2CCOCC2)c(=O)c2cc([N+](=O)[O-])ccc12 | 14.3 µM | 1.32 µM |  | 0.765 µM | 3.87 µM | 3.2 µM |  | 1.1 µM | 18.1 | 1.02 µM | 0.0783 µM | 110 nM | 1.13 µM | 15.1 nM | 311 nM | 0.224 µM | 0.448 µM | 45.3 nM
O=C(Cc1ccc(Nc2ccnc(C(F)(F)F)c2)cc1)Nc1cc(Cl)ccc1O | 18.7 µM | 22 µM |  | 58.6 µM | 52.1 µM | 7.63 µM |  | 23.6 µM | 11.3 | 14.9 µM | 6.46 µM | 2770 nM | 6.06 µM | 2450 nM | 7180 nM | 21.3 µM | 17.8 µM | 1680 nM
O=C(Oc1ccc2c(-c3ccccc3)c(C(=O)Nc3ccc(Cl)cc3)c(=O)oc2c1)c1ccccc1 | > 100 µM | > 100 µM | > 100 | > 100 µM |  | > 100 µM | > 100 | > 100 µM |  |  |  |  |  |  |  |  |  | 
CCOc1ccc(NCC2CC/C(=C\c3ccc(Cl)cc3)C2=O)cc1 (stereo not drawn) | > 100 µM | > 57 µM | 37.1 | 25.8 µM | > 100 µM | 22.8 µM | > 54.1 | > 57.3 µM |  | > 50.4 µM |  |  |  |  |  |  |  | 
O=C1NC(=O)[C@@H](c2c[nH]c3ccccc23)[C@@H]1c1c[nH]c2ccccc12 | > 25 µM | > 25 µM |  | > 25 µM | > 25 µM | > 25 µM |  | > 25 µM | > 25 | > 25 µM | > 25 µM | > 25000 nM | > 25 µM | > 25000 nM | > 25000 nM | > 25 µM | > 25 µM | > 25000 nM
CN(C(=O)C12C3C4C1C1C2C3C41C(O)C(C)(C)C)C(C)(C)C (stereo not drawn) | > 100 µM | > 100 µM | > 100 | > 100 µM | > 100 µM | > 100 µM | > 100 | > 100 µM |  |  |  |  |  |  |  |  |  | 
OCCn1cc(-c2cnc3nnn(Cc4ccc5ncccc5c4)c3n2)cn1 | > 100 µM | > 100 µM |  | > 100 µM | > 100 µM | > 100 µM |  | > 100 µM | > 100 | > 100 µM | > 100 µM | > 100000 nM | > 100 µM | > 100000 nM | > 100000 nM | > 100 µM | > 100 µM | > 100000 nM
c1ccc2c(c1)Sc1ccccc1N2C1CN2CCC1CC2 (stereo not drawn) | 32.1 µM | 28.3 µM | 28.8 | 25.9 µM |  | 33.9 µM | 30.7 | 30.9 µM |  |  |  |  |  |  |  |  |  | 
COc1ccc(/C=N\NC(=O)c2ccc3nc(-c4ccc(Cl)cc4)[nH]c3c2)cc1 | 3.37 µM | 3.46 µM |  | 3.67 µM | 6.89 µM | > 100 µM |  | 5.22 µM | 4.83 | 15.4 µM | 2.43 µM | 1940 nM | 1.79 µM | 2870 nM | 1730 nM | 1.93 µM | 2.35 µM | 4900 nM
CN1C(=O)CCC1c1ccc2c(c1)oc(=O)n2C (stereo not drawn) | > 100 µM | > 100 µM | > 100 | > 100 µM | > 100 µM | > 100 µM | > 100 | > 100 µM |  |  |  |  |  |  |  |  |  | 
ClC1c2ccccc2C2(c3ccccc3)OOC1(c1ccccc1)O2 (stereo not drawn) | 3.8 µM | 5.01 µM |  | 2.98 µM | 11.2 µM |  | 3.17 | 3.59 µM |  | 3.4 µM |  |  |  |  |  |  |  | 
